Literature values, collected in patent US20090163599A1, “Mif adsorbant” (priority 2004, published 2009).

Molecular target: T1, dopachrome tautomerase activity of MIF (Homo sapiens, UniProt P14174)
T1 sequence (P14174 2-115 limits assumed): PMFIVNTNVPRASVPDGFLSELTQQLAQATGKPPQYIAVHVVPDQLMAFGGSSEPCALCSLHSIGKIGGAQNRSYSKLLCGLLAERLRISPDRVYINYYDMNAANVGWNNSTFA
Conditions: known from Swope et al, J Biol Chem 273: 14877-14884, 1998

Structure (SMILES)	inhibiting effect on the dopachrome tautomerase activity of MIF
CCCCCCS [hexane thiol]	strong inhibiting effect
CCCCCCSC[C@H](NC(=O)CC[C@H](N)C(=O)O)C(=O)NCC(=O)O [S-hexylglutathione]	strong inhibiting effect
